According to patent publication US9079910B2, “5-(1,2,3-triazol-4-yl)-7H-pyrrolo[2,3-D]pyrimidine derivatives” (Merck Patent GmbH, priority 2011, dated 2015):

Legend:
HCT 116 = assay: Vitality assay (tumour cell proliferation/vitality, Alamar Blue), HCT 116; format: cell-based; conditions: Homo sapiens, 96 h, HCT 116 cells, 4 days
Protocol: (§1) In the present experiment description, the inhibition of tumour cell proliferation/tumour cell vitality by active compounds is described.
(§2) The cells are sown in a suitable cell density in microtitre plates (96-well format) and the test substances are added in the form of a concentration series. After four further days of cultivation in serum-containing medium, the tumour cell proliferation/tumour cell vitality can be determined by means of an Alamar Blue test system.
(§3) The cells are cultivated in medium. At intervals of several days, the cells are detached from the culture dishes with the aid of trypsin solution and sown in suitable dilution in fresh medium. The cells are cultivated at 37° Celsius and 10% CO2. […]
(§4) In each case, 20 μl of Alamar Blue reagent are added per well, and the microtitre plates are incubated, for example, for a further seven hours in a CO2 incubator (at 37° C. and 10% CO2). The plates are measured in a reader with a fluorescence filter at a wavelength of 540 nm. […]
(§5) The absorbance value of the medium control (no cells and test substances used) is subtracted from all other absorbance values. The controls (cells without test substance) are set equal to 100 percent, and all other absorbance values are set in relation thereto (for example in % of control):
(§6) IC50 values (50% inhibition) are determined with the aid of statistics programs, such as, for example, RS1.

PDK1 = target: T1, PDK1 (Homo sapiens, UniProt O15530); assay: Test for the inhibition of PDK1 (flashplate, 33P-ATP); format: biochemical; conditions: His6-PDK1, 4 μM ATP, 30° C., 60 min
T1 construct: His6 (N)
T1 sequence (O15530 51-556 limits assumed): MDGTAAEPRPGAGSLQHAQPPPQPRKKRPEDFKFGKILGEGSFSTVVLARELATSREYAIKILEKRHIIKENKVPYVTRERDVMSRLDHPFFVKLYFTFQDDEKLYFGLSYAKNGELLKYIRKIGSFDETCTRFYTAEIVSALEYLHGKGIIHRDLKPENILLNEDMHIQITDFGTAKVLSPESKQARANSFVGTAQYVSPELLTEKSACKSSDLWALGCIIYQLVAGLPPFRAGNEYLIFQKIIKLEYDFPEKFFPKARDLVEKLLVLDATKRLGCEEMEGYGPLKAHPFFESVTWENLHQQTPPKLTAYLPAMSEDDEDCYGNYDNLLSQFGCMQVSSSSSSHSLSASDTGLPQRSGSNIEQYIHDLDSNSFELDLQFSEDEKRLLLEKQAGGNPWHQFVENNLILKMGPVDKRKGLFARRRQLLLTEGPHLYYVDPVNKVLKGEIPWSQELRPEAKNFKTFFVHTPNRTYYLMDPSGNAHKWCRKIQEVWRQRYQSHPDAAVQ
Protocol: 4.0 Test for the Inhibition of PDK1
The experimental batches are carried out in a flashplate system with 384 wells/microtitration plate.
In each case, the PDK1 sample His6-PDK1(1-50)(3.4 nM), the PDK1 substrate biotin-bA-bA-[…] (400 nM), 4 μM ATP (with 0.2 μCi of ^33P-ATP/well) and the test substance in 50 μl of conventional experimental solution per well are incubated at 30° C. for 60 min. The test substances are employed in corresponding concentrations (if desired in a dilution series). The control is carried out without test substance. The reaction is stopped using standard methods and washed. The activity of the kinase is measured via the incorporated radioactivity in top count. In order to determine the non-specific kinase reaction (blank value), the experimental batches are carried out in the presence of 100 nM staurosporine.
The radioactivity (decompositions per minute) of the blank value (no use of test substance in the presence of staurosporine) is subtracted from all other radioactivity values. The controls (kinase activity without test substance) are set equal to 100 percent and all other radioactivity values (after subtracting the blank value) are expressed set in relation thereto (for example in % of the control).
IC50 values (50% inhibition) are determined with the aid of statistics programmes, such as, for example, RS1.

A2780 = assay: Vitality assay (tumour cell proliferation/vitality, Alamar Blue), A2780; format: cell-based; conditions: Homo sapiens, 96 h, A2780 cells, 4 days
Protocol: as §1, §2, §3, §4, §5, §6

IKKepsilon = target: T2, IKKepsilon (Homo sapiens, UniProt Q14164); assay: IKK kinase test (IKKepsilon) (384-well flashplate assay); format: biochemical; conditions: 1 nM IKK, 10 μM ATP, 30° C., 120 min
T2 sequence (Q14164 1-716): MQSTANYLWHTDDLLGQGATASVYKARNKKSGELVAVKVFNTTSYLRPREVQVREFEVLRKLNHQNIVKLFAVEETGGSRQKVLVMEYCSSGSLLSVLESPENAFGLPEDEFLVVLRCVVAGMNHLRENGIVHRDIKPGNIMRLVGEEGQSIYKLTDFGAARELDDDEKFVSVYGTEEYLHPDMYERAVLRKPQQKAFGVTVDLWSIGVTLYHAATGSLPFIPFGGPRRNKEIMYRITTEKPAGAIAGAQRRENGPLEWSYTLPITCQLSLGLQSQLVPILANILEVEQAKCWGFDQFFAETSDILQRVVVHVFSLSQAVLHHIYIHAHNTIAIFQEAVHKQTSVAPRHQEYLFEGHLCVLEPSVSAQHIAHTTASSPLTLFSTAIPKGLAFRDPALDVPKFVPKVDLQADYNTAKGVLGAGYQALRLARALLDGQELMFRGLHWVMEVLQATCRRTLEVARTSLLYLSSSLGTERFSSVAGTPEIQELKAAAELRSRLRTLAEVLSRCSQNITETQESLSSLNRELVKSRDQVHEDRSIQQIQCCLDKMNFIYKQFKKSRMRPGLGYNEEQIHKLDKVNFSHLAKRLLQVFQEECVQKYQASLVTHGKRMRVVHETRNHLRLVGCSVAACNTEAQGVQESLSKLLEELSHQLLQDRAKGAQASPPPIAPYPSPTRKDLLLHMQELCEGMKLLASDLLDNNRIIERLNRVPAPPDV
Protocol: IKK—Kinase Test (IKKepsilon)
The kinase assay is performed as 384-well flashplate assay.
1 nM IKK, 800 nM biotinylated I B (19-42) peptide (biotin-C6-C6-[…]) and 10 μM ATP (with 0.3 μCi of ^33P-ATP/well) are incubated in a total volume of 50 μl (10 mM MOPS, 10 mM magnesium acetate, 0.1 mM EGTA, 1 mM dithiothreitol, 0.02% of Brij35, 0.1% of BSA, 0.1% of BioStab, pH 7.5) with or without test substance at 30° C. for 120 min. The reaction is stopped using 25 μl of 200 mM EDTA solution, filtered off with suction after 30 min at room temperature, and the wells are washed 3 times with 100 μl of 0.9% NaCl solution. The non-specific proportion of the kinase reaction (blank) is determined using 3 μM BX-795. Radioactivity is measured in the Topcount. IC50 values are calculated using RS1.

[1] = target: T3, TANK binding kinase (TBK1) (Homo sapiens, UniProt Q9UHD2); assay: TBK1 kinase test (384-well flashplate assay); format: biochemical; conditions: 0.6 nM TBK1, 10 μM ATP, 30° C., 120 min
T3 sequence (Q9UHD2 1-729): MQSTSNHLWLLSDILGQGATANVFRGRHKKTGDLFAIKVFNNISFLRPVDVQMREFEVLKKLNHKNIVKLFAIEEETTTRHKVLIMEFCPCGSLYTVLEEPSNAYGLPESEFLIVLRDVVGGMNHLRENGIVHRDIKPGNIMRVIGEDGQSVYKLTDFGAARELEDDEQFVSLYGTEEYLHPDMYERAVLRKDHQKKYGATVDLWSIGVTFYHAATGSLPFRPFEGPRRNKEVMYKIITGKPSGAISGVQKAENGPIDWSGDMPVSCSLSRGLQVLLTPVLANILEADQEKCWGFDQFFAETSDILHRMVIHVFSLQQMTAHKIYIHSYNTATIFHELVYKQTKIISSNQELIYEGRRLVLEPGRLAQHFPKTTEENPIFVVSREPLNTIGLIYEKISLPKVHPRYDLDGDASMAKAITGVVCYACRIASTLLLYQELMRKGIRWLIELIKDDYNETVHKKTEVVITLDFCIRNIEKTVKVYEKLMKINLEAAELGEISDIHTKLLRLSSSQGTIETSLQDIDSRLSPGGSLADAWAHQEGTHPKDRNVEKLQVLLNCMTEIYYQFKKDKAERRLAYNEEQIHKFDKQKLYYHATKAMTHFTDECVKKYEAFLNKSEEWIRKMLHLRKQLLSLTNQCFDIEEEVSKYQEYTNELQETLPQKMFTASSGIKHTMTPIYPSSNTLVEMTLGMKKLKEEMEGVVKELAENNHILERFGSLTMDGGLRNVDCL
Protocol: The kinase assay is performed as 384-well flashplate assay. 0.6 nM TANK binding kinase (TBK1), 800 nM biotinylated MELK-derived peptide (biotin-Ah-Ah-[…]) and 10 μM ATP (with 0.25 μCi of ^33P-ATP/well) are incubated in a total volume of 50 μl (10 mM MOPS, 10 mM magnesium acetate, 0.1 mM EGTA, 1 mM DTT, 0.02% of Brij35, 0.1% of BSA, pH 7.5) with or without test substance at 30° C. for 120 min. The reaction is stopped using 25 μl of 200 mM EDTA solution, filtered off with suction after 30 min at room temperature, and the wells are washed 3 times with 100 μl of 0.9% NaCl solution. The non-specific proportion of the kinase reaction (blank) is determined using 100 nM staurosporine. Radioactivity is measured in the Topcount. IC50 values are calculated using RS1.

| Structure (SMILES) | IC50 (HCT 116) | IC50 (PDK1) | IC50 (A2780) | IC50 (IKKepsilon) | IC50 [1] |
| --- | --- | --- | --- | --- | --- |
| COCCOc1ncnc2[nH]cc(-c3cn(Cc4ccccc4)nn3)c12 [Compound A1, 5-(1-benzyl-1H-1,2,3-triazol-4-yl)-4-(2-methoxyethoxy)-7H-pyrrolo[2,3-d]pyrimidine] | 1000 to 10000 nM | 10 to 1000 nM | 1000 to 10000 nM | 1000 to 10000 nM | 10 to 1000 nM |
| COc1ncnc2[nH]cc(-c3cn(Cc4ccccc4)nn3)c12 [Compound A2] | – | 10 to 1000 nM | – | 10 to 1000 nM | 10 to 1000 nM |
| c1ccc(Cn2cc(-c3c[nH]c4ncncc34)nn2)cc1 [Compound A6, 5-(1-benzyl-1H-1,2,3-triazol-4-yl)-7H-pyrrolo[2,3-d]pyrimidine] | – | 1000 to 10000 nM | – | 1000 to 10000 nM | 1000 to 10000 nM |
| Fc1cccc(C(CCN2CCCCC2)n2cc(-c3c[nH]c4ncncc34)nn2)c1F (centres unmarked) [Compound A9, 5-{1-[1-(2,3-difluorophenyl)-3-piperidin-1-ylpropyl]-1H-1,2,3-triazol-4-yl}-7H-pyrrolo[2,3-d]pyrimidine] | – | 1000 to 10000 nM | – | 1000 to 10000 nM | > 10000 nM |
